This is an account of results in patent publication US9815835B2, “Substituted polycyclic carbamolypyridone derivative” (priority 2009, dated 2017).

As a reminder, the IC50 is the concentration needed to halve the response being measured.

The target in experiment [1] is cap-dependent endonuclease (RNP fraction containing PB1•PB2•PA complex) (Influenza A virus, UniProt P15659). Nature of the experiment: biochemical. As to conditions: RNP from A/WSN/33 virus, capped Cy3/BHQ2 30mer RNA substrate, 60 minutes at room temperature; read-out: CEN IC50.
The test system of another experiment is influenza virus. Nature of the experiment: microbe, parasite or virus in culture. It is filed as cell-based, influenza virus (MDBK or MDCK cells). The settings on record: unidentified influenza virus, 72 h, read-out: CPE EC50, effective concentration to achieve 50% CPE inhibition, 3 days incubation, WST-8. Background: Formazan colour is commonly taken as a measure of viable cells.

For the molecule `C[C@H](N1CN(C2c3ccccc3CSc3ccccc32)n2ccc(=O)c(O)c2C1=O)C(C)(C)C` (some centres unmarked) [Example 314], the IC50 in experiment [1] was 0.149 µM. Also, the EC50 with influenza virus worked out at 0.026 µM.
Take `Cc1noc(CN2CN(C3c4ccccc4CSc4ccccc43)n3ccc(=O)c(O)c3C2=O)n1` (centres unmarked) [Example 315]: the IC50 in experiment [1] was 0.057 µM. Besides, the EC50 in the experiment on influenza virus came to 0.115 µM.
Consider `O=C1c2c(O)c(=O)ccn2N(C2c3ccccc3CSc3ccccc32)CN1Cc1nccs1` (centres unmarked) [Example 316], for which the concentration for half-maximal inhibition (IC50) in experiment [1] was 0.069 µM. Besides, the EC50 with influenza virus is 0.083 µM.
The corresponding values for `COC[C@H](C)N1CN(C2c3ccccc3CSc3ccccc32)n2ccc(=O)c(O)c2C1=O` (some centres unmarked) [Example 317] are 0.048 µM and 0.017 µM.
For `C[C@@H](N1CN(C2c3ccccc3CSc3ccccc32)n2ccc(=O)c(O)c2C1=O)C(C)(C)C` (some centres unmarked) [Example 320], in experiment [1], the half-inhibitory concentration (IC50) was found to be 0.045 µM. The EC50 in the experiment on influenza virus was found to be 0.011 µM.
`O=C1c2c(O)c(=O)ccn2N(C2c3ccccc3CSc3ccccc32)CN1C(CF)CF` (centres unmarked) [Example 322]: in experiment [1], the IC50 worked out at 0.113 µM. Moreover, in the experiment on influenza virus, the EC50 was 0.028 µM.
For `O=C1c2c(O)c(=O)ccn2N(C2c3ccccc3CSc3ccccc32)CN1[C@@H]1C[C@@H]1F` (some centres unmarked) [Example 323] the same measures were 0.077 µM and 0.019 µM.
For `O=C1c2c(O)c(=O)ccn2N(C2c3ccccc3CSc3ccccc32)CN1C1CC(F)(F)C1` (centres unmarked) [Example 324] the same measures were 0.107 µM and 0.035 µM.
Turning to `CC(C)N1CN(C2c3ccccc3CSc3cc(Cl)ccc32)n2ccc(=O)c(O)c2C1=O` (centres unmarked) [Example 327], the IC50 in experiment [1] was 0.092 µM. In addition, the EC50 in the experiment with influenza virus stood at 0.024 µM.
For `CC(C)N1CN(C2c3ccccc3CSc3ccc(F)cc32)n2ccc(=O)c(O)c2C1=O` (centres unmarked) [Example 329], the IC50 in experiment [1] worked out at 0.058 µM. In the experiment on influenza virus, the EC50 was found to be 0.023 µM.
With `CCN1CN(C2c3ccccc3CSc3c(Cl)cccc32)n2ccc(=O)c(O)c2C1=O` (centres unmarked) [Example 330], in experiment [1], the IC50 is 0.026 µM. Besides, in the experiment with influenza virus, the EC50 was 0.019 µM.
`CN1CN(C2c3ccccc3CSc3ccc(Cl)cc32)n2ccc(=O)c(O)c2C1=O` (centres unmarked) [Example 331]: in experiment [1], the IC50 worked out at 0.045 µM. Further, the EC50 with influenza virus turned out to be 0.335 µM.
The corresponding values for `COCCN1CN(C2c3ccccc3CSc3ccc(Cl)cc32)n2ccc(=O)c(O)c2C1=O` (centres unmarked) [Example 333] are 0.021 µM and 0.425 µM.
The corresponding values for `COCCN1CN(C2c3ccccc3CSc3cc(Cl)ccc32)n2ccc(=O)c(O)c2C1=O` (centres unmarked) [Example 334] are 0.075 µM and 0.032 µM.
For `COCCN1CN(C2c3ccccc3CSc3c(Cl)cccc32)n2ccc(=O)c(O)c2C1=O` (centres unmarked) [Example 335] the same measures were 0.019 µM and 0.016 µM.
Consider `COCCN1CN(C2c3ccccc3CSc3cc(F)ccc32)n2ccc(=O)c(O)c2C1=O` (centres unmarked) [Example 337], for which, in experiment [1], the IC50 worked out at 0.058 µM. Besides, in the experiment on influenza virus, the EC50 was 0.028 µM.
The corresponding values for `COCCN1CN(C2c3ccccc3CSc3ccc(F)cc32)n2ccc(=O)c(O)c2C1=O` (centres unmarked) [Example 338] are 0.074 µM and 0.085 µM.
Regarding `O=C1c2c(O)c(=O)ccn2N(C2c3ccccc3CSc3c(Cl)cccc32)CN1C1CC1` (centres unmarked) [Example 341], in experiment [1], the IC50 turned out to be 0.016 µM. Moreover, the EC50 in the experiment with influenza virus is 0.027 µM.
As to `CC(N1CN(C2c3ccccc3CSc3c(Cl)cccc32)n2ccc(=O)c(O)c2C1=O)C(F)(F)F` (centres unmarked) [Example 343], in experiment [1], the IC50 worked out at 0.122 µM. In addition, the EC50 with influenza virus is 0.018 µM.
For `CC(C)N1CN(C2c3cc(F)ccc3CSc3ccc(F)cc32)n2ccc(=O)c(O)c2C1=O` (centres unmarked) [Example 346] the same measures were 0.028 µM and 0.018 µM.
For `CN1CN(C2c3ccccc3CSc3c(Cl)cccc32)n2ccc(=O)c(O)c2C1=O` (centres unmarked) [Example 347] the same measures were 0.014 µM and 0.017 µM.
The corresponding values for `CN1CN(C2c3ccccc3CSc3ccc(F)cc32)n2ccc(=O)c(O)c2C1=O` (centres unmarked) [Example 349] are 0.053 µM and 0.075 µM.
Consider `CN1CN(C2c3ccccc3CSc3cc(F)ccc32)n2ccc(=O)c(O)c2C1=O` (centres unmarked) [Example 355], for which the IC50 in experiment [1] was found to be 0.04 µM. For the same molecule, the EC50 in the experiment on influenza virus is 0.075 µM.
Take `Cc1ccc2c(c1)C(N1CN(C(C)C)C(=O)c3c(O)c(=O)ccn31)c1ccccc1CS2` (centres unmarked) [Example 357]: the IC50 in experiment [1] was found to be 0.138 µM. In addition, the EC50 with influenza virus came to 0.386 µM.
The corresponding values for `Cc1ccc(C)c2c1SCc1ccccc1C2N1CN(C(C)C)C(=O)c2c(O)c(=O)ccn21` (centres unmarked) [Example 358] are 0.051 µM and 0.069 µM.
The corresponding values for `O=C1c2c(O)c(=O)ccn2N(C2c3ccccc3CSc3ccccc32)CN1CCO` (centres unmarked) [Example 360] are 0.042 µM and 0.087 µM.
The corresponding values for `O=C1c2c(O)c(=O)ccn2N(C2c3ccccc3CCc3ccccc32)CN1CCO` [Example 361] are 0.039 µM and 0.145 µM.
Consider `CC(CO)N1CN(C2c3ccccc3CSc3ccccc32)n2ccc(=O)c(O)c2C1=O` (centres unmarked) [Example 363], for which the IC50 in experiment [1] was found to be 0.058 µM. For the same molecule, the EC50 in the experiment with influenza virus was 0.067 µM.
Regarding `O=C1c2c(O)c(=O)ccn2N(C2c3ccccc3CSc3ccccc32)CN1CC(O)CO` (centres unmarked) [Example 365], the IC50 in experiment [1] turned out to be 0.041 µM. In the experiment with influenza virus, the EC50 was found to be 2.25 µM.
The corresponding values for `O=C1c2c(O)c(=O)ccn2N(C2c3ccccc3CSc3ccccc32)CN1C(CO)CO` (centres unmarked) [Example 366] are 0.09 µM and 0.838 µM.
For the molecule `CC(CO)N1CN(C(c2ccccc2)c2ccccc2)n2ccc(=O)c(O)c2C1=O` (centres unmarked) [Example 368], the IC50 in experiment [1] amounted to 0.14 µM. Further, in the experiment with influenza virus, the EC50 was 0.47 µM.
The corresponding values for `CC(CCO)N1CN(C(c2ccccc2)c2ccccc2)n2ccc(=O)c(O)c2C1=O` (centres unmarked) [Example 369] are 0.294 µM and 0.434 µM.
The corresponding values for `CC(C)(O)CN1CN(C2c3ccccc3CCc3ccccc32)n2ccc(=O)c(O)c2C1=O` [Example 370] are 0.113 µM and 0.061 µM.
For `CC(C)(O)CN1CN(C2c3ccccc3CSc3ccccc32)n2ccc(=O)c(O)c2C1=O` (centres unmarked) [Example 371] the same measures were 0.161 µM and 0.074 µM.
In the case of `O=C1c2c(O)c(=O)ccn2N(C2c3ccccc3CSc3ccccc32)CN1CC1(O)CCCCC1` (centres unmarked) [Example 372], the IC50 in experiment [1] came out at 0.164 µM. In addition, the EC50 with influenza virus was determined as 0.146 µM.
Regarding `O=C1c2c(O)c(=O)ccn2N(C2c3ccccc3CSc3ccccc32)CN1[C@H](CO)c1ccccc1` (some centres unmarked) [Example 376], the IC50 in experiment [1] stood at 0.063 µM. For the same molecule, the EC50 with influenza virus was found to be 0.092 µM.
The corresponding values for `CC(C)[C@@H](CO)N1CN(C2c3ccccc3CSc3ccccc32)n2ccc(=O)c(O)c2C1=O` (some centres unmarked) [Example 378] are 0.047 µM and 0.022 µM.
Consider `CC(C)N1CN(C2c3ccccc3CCc3c(CO)cccc32)n2ccc(=O)c(O)c2C1=O` (centres unmarked) [Example 384], for which the concentration for half-maximal inhibition (IC50) in experiment [1] is 0.153 µM. The EC50 in the experiment on influenza virus stood at 0.293 µM.
For `CC(C)N1CN([C@@H]2c3ccccc3[C@@H]3[C@H](c4ccccc42)C3(F)F)n2ccc(=O)c(O)c2C1=O` [Example 386], in experiment [1], the IC50 was found to be 0.075 µM. Further, the EC50 with influenza virus came out at 0.096 µM.
The corresponding values for `CC(C)N1CN(C2c3ccccc3NC(=O)c3ccccc32)n2ccc(=O)c(O)c2C1=O` (centres unmarked) [Example 387] are 0.3 µM and 1.15 µM.
The corresponding values for `CC(C)N1CN(C2c3ccccc3CCc3ccsc32)n2ccc(=O)c(O)c2C1=O` (centres unmarked) [Example 388] are 0.133 µM and 0.063 µM.
Turning to `CC(C)N1CN(C2c3ccccc3COc3c(Cl)cccc32)n2ccc(=O)c(O)c2C1=O` (centres unmarked) [Example 390], the IC50 in experiment [1] was found to be 0.095 µM. In addition, the EC50 with influenza virus is 0.029 µM.
Turning to `O=C1c2c(O)c(=O)ccn2N(C2c3ccccc3COc3ccccc32)CN1C1CC1` (centres unmarked) [Example 392], the IC50 in experiment [1] stood at 0.153 µM. In the experiment with influenza virus, the EC50 was 0.025 µM.
The corresponding values for `COCCN1CN(C2c3ccccc3COc3ccccc32)n2ccc(=O)c(O)c2C1=O` (centres unmarked) [Example 394] are 0.087 µM and 0.064 µM.
For `CN1CN(C2c3ccccc3COc3ccccc32)n2ccc(=O)c(O)c2C1=O` (centres unmarked) [Example 395] the same measures were 0.043 µM and 0.089 µM.
Turning to `CC(C)N1CN(C2c3ccccc3COc3ccc(Cl)cc32)n2ccc(=O)c(O)c2C1=O` (centres unmarked) [Example 398], in experiment [1], the IC50 amounted to 0.034 µM. Also, in the experiment on influenza virus, the EC50 came to 0.118 µM.
For `CC(C)N1CN(C2c3ccccc3COc3cc(F)ccc32)n2ccc(=O)c(O)c2C1=O` (centres unmarked) [Example 399] the same measures were 0.105 µM and 0.061 µM.
With `COCCN1CN(C2c3ccccc3COc3c(F)cccc32)n2ccc(=O)c(O)c2C1=O` (centres unmarked) [Example 400], the IC50 in experiment [1] stood at 0.067 µM. The EC50 in the experiment with influenza virus came out at 0.079 µM.
Consider `COCCN1CN(C2c3cc(F)ccc3COc3ccccc32)n2ccc(=O)c(O)c2C1=O` (centres unmarked) [Example 404], for which the IC50 in experiment [1] was found to be 0.084 µM. Further, the EC50 with influenza virus was 0.063 µM.
The corresponding values for `COCCN1CN(C2c3ccccc3OCc3c(F)cccc32)n2ccc(=O)c(O)c2C1=O` (centres unmarked) [Example 405] are 0.074 µM and 0.051 µM.
For `CC(C)N1CN(C2c3ccccc3OCc3c(F)cccc32)n2ccc(=O)c(O)c2C1=O` (centres unmarked) [Example 407], the concentration for half-maximal inhibition (IC50) in experiment [1] was 0.035 µM. Besides, the EC50 with influenza virus was found to be 0.017 µM.
For `CC(C)N1CN(C2c3cc(Cl)ccc3COc3ccccc32)n2ccc(=O)c(O)c2C1=O` (centres unmarked) [Example 408], the IC50 in experiment [1] amounted to 0.135 µM. Also, in the experiment with influenza virus, the EC50 stood at 0.061 µM.
Take `C[C@@H](N1CN(C2c3ccccc3COc3c(Cl)cccc32)n2ccc(=O)c(O)c2C1=O)C(F)(F)F` (some centres unmarked) [Example 411]: the IC50 in experiment [1] was found to be 0.046 µM. Besides, the EC50 with influenza virus was 0.014 µM.
The corresponding values for `CC(C)c1cccc2c1OCc1ccccc1C2N1CN(C(C)C)C(=O)c2c(O)c(=O)ccn21` (centres unmarked) [Example 412] are 0.292 µM and 0.203 µM.
With `C[C@H](N1CN([C@@H]2c3ccccc3SCc3c(Cl)cccc32)n2ccc(=O)c(O)c2C1=O)C(F)(F)F` [Example 419], in experiment [1], the half-inhibitory concentration (IC50) was 0.124 µM. In addition, the EC50 with influenza virus is 0.019 µM.
